Consider 13 compounds from ChEMBL document CHEMBL4396867, “Identification of 5-Substituted 2-Acylaminothiazoles That Activate Tat-Mediated Transcription in HIV-1 Latency Models” (J Med Chem, 2019).

In general, solubility (kinetic) refers to the concentration staying in solution when a stock, usually in DMSO, is diluted into the medium.

In brackets after ≈: the same amount, converted by molar mass.

Data set [1] is described as follows: Aqueous solubility of the compound in 0.01M HCl at pH 2 by nephelometry. Format: physicochemical.
Data set [2] is described as follows: Aqueous solubility of the compound in phosphate buffer at pH 6.5 by nephelometry. The class given is physicochemical.

Regarding `CC(C)c1cnc(NC(=O)CCCOc2ccccc2)s1`, the kinetic solubility in data set [1] and in data set [2] was below 1.2 µM each time.

As to `Cc1cnc(NC(=O)CCCOc2cccc(Cl)c2)s1`, the kinetic solubility in data set [1] and in data set [2] was below 1.1 µM each time.

Regarding `Cc1cnc(NC(=O)CCCOc2cncc(Cl)c2)s1`, the results for the kinetic solubility in data set [1] and in data set [2] were 1.6 to 3.1 µM (≈ 0.499 to 0.967 µg/mL) and 3.1 to 6.3 µM (≈ 0.967 to 1.96 µg/mL), respectively.

With `N#Cc1cnc(NC(=O)CCCOc2cccc(Cl)c2)s1`, the solubility (kinetic) in data set [1] and in data set [2] was below 1.6 µM throughout.

Take `Cc1cnc(NC(=O)NCCOc2ccc(Cl)c(C)c2)s1`: the solubility (kinetic) was 1.6 to 3.1 µM (≈ 0.521 to 1.01 µg/mL) in data set [1] and below 1.6 µM in data set [2].

Consider `N#Cc1cnc(NC(=O)CCCOc2cccc(C(F)(F)F)c2)s1`, for which the solubility (kinetic) in data set [1] and in data set [2] was below 1.6 µM each time.

In the case of `O=C(CCCOc1cccc(C(F)(F)F)c1)Nc1ncc(C(F)(F)F)s1`, the kinetic solubility in data set [1] and in data set [2] was below 1.6 µM each time.

As for `Cc1cnc(NC(=O)CCCOc2cccc(Cl)n2)s1`, the kinetic solubility in data set [1] and in data set [2] was below 1.2 µM throughout.

For `N#Cc1cnc(NC(=O)CCCOc2ccccc2)s1`, the kinetic solubility in data set [1] and in data set [2] was 1.1 to 2.2 µM (≈ 0.316 to 0.632 µg/mL) throughout.

As to `Cc1cnc(NC(=O)CCCOc2cccc(C(F)(F)F)c2)s1`, the solubility (kinetic) in data set [1] and in data set [2] was below 1.1 µM throughout.

`O=C(CCCOc1ccccc1)Nc1ncc(Cl)s1`: the solubility (kinetic) in data set [1] and in data set [2] was below 1.2 µM throughout.

Regarding `Cc1cnc(NC(=O)CCCOc2cccc(C#N)c2)s1`, the kinetic solubility in data set [1] and in data set [2] was below 1.1 µM in each case.

Take `Cc1cnc(NC(=O)CCCOc2ccccc2)s1`: the kinetic solubility is 1.1 to 2.3 µM (≈ 0.304 to 0.636 µg/mL) in data set [1] and below 1.1 µM in data set [2].
